Results reported in patent US20050123536A1, “Treatment of immunological disorders using anti-dc30 antibodies” (priority 2001, published 2005).
“And” between values parts separate entries of the source, which are not always exact repeats. Identical values can stand only once. “Also recorded” adds a separate entry of the source.

How the values were obtained:
Jurkat T cells [1] = experiment: Cell cycle disposition, DNA synthesis and DNA fragmentation (apoptosis) by PI and anti-BrdU staining; format: cell-based, human; conditions: for DNA fragmentation in Jurkat cells: mAb cross-linked by goat anti-mouse IgG Fc, after 24 and 48 hours
Protocol: The relationship between cell cycle status and DNA replication in Jurkat cells treated with cross-linked anti-CD30 in Abs was further investigated. […] The antibody cocktails were allowed to incubate at room temperature for 15 minutes. Serial 1:10 dilutions of these antibody cocktails in culture medium were then prepared. One ml of antibody cocktails was then mixed with 1 ml of Jurkat cell suspension containing 0.25×10^6 cells in 12-well TC plates.
After 24 or 48 hours of incubation, cells were harvested by centrifugation and resuspended in 2 ml of fresh medium equilibrated at 37° C. Bromodeoxyuridine (BrdU) (Sigma, St. Louis, Mo.) was used to label cells that were actively synthesizing DNA. Twenty μl of 1 mM BrdU dissolved in water were added to the cell suspension, and the incubation continued at 37° C. for 15 minutes. Cells were then spun down, washed once with PBS, and resuspended in 0.5 ml of ice-cold PBS. One ml of 100% ethanol at −20° C. was added drop-wise to the cell suspension for cell fixation. After fixation at 4 C for 30 minutes, fixed cells were spun down. The cell pellets were resuspended in 1 ml of 2 M HCl with 0.5% Triton X-100 (Sigma) and incubated for 30 minutes at room temperature before cells were spun down. One ml of 0.1 M Na2B4O7 at pH 8.5 was used to resuspend the cell pellets and to neutralize the acid for 10 minutes at room temperature. Cells were then pelleted by centrifugation and washed once with PBS containing 0.5% Tween 20 (Sigma) and 1% BSA. […] Cells were then washed twice with PBS, 0.5% Tween 20, 1% BSA, and then resuspended in 0.5 ml of PBS containing 5 μg/ml of propidium iodide (PI) (Sigma) to quantify DNA contents in cells. […]
Jurkat T cells were treated with either anti-CD30 mAb alone, anti-CD3 mAb, alone, or a combination of anti-CD30 and anti-CD3 mAbs. […] Cell cycle distribution was determined by BrdU and PI staining as in FIG. 4.

Jurkat T cells [2] = experiment: Jurkat T cell proliferation, 3H-TdR incorporation, anti-CD30 mAbs with or without secondary cross-linking Ab; format: cell-based, human; conditions: for inhibition of Jurkat T cell proliferation by immobilized mAb: mAb immobilized onto TC wells, data not shown; for inhibition of thymidine incorporation in Jurkat cells: secondary cross-linking antibody used
Protocol: FIG. 2. […] Proliferation was assessed by a pulse of tritiated thymidine (^3H-TdR) during the last 4 hours of a 72 hour incubation.
FIG. 3. […] Proliferation was assessed by a pulse of ^3H-TdR during the last 4 hours of a 48-hour incubation.
The effect of signaling through CD30 by anti-CD30 on the proliferation of Jurkat T cells was assessed by tritiated thymidine (^3H-TdR) incorporation assays. Jurkat cells were treated with soluble anti-CD30 in graded doses or anti-CD30 cross-linked by a secondary cross-linking antibody (Ab). […] Final ratios of 1:2.5, 1:5, and 1:10 between the primary mAbs and secondary cross-linking antibodies were used. Antibody cocktails were allowed to incubate at room temperature for 15 minutes. Serial dilutions of these antibody cocktails in culture medium were then prepared to achieve the desired final concentrations. One hundred ill of antibody cocktails were then mixed with 100 μl Jurkat cell suspension containing 5000 cells in 96-well tissue culture (TC) plates. Cells were incubated with the antibody cocktails for 44 hours before a 4-hour pulse with 1 μCi of ^3H-TdR. Cells were then harvested onto filters, and incorporated tritiated thymidine was measured by scintillation counting. Thymidine incorporation values obtained from the treated cells were then compared to the untreated control cultures.

Jurkat T cells [3] = experiment: Apoptosis by Annexin V binding and permeability to PI; format: cell-based, human; conditions: primary mAb 2 μg/ml, 10-fold excess GAM
Protocol: FIG. 7. […] Anti-CD30 and anti-CD3 mAbs were used at 2 μg/ml. GAM secondary Ab was used in 10-fold excess to cross-link the primary mAbs. Binding of FITC-conjugated Annexin V enabled the detection of cells undergoing apoptosis. Membrane permeability to PI was used to detect dead cells that had lost membrane integrity. In the figure, Annexin V^−/PI^− events represent live cells (lower left quadrant), Annexin V^+/PI^− events represent apoptotic cells (lower right quadrant), and Annexin V^+/PI^+ events represent dead cells (upper right quadrant). Numbers outside of the density plots denote the percentage of cells present in each of the quadrants.
Primary mAbs were used at a final concentration of 2 μg/ml. A 10-fold excess of GA-M antibody was used to cross-link the primary antibodies. After an incubation of 15 minutes at room temperature, antibody cocktails were added to Jurkat cells. At the times designated in FIG. 7, percentages of apoptotic and dead cells in the cultures were determined by Annexin V binding and permeability to PI using the Annexin V-FITC Apoptosis Detection Kit I (BD PharMingen, San Diego, Calif.) according to the manufacturer's instruction. […]

CD3 (human) = experiment: cell-based or functional assay
[4] = test system: T lymphocyte clones 40E10 and 40H7; experiment: Apoptosis induction in T cell clones by Annexin V binding and permeability to PI; format: cell-based, human; conditions: 1 μg/ml of ADC, 4S-hour incubation
Protocol: FIG. 21. […] After 48 hr of incubation, Annexin V binding and permeability of PI were used to assess the extent of apoptosis induction.

[5] = test system: activated naïve T lymphocytes (CD45RO-); experiment: Proliferation of activated naïve T lymphocytes, 3H-TdR; format: cell-based, human; conditions: compared to memory T lymphocytes or T lymphocyte clones
Protocol: As PBMC are made up of different subsets of lymphocytes, the response of one cellular subset toward cAC10 ADCs may easily be masked by other subsets. In order to examine this possibility, total T lymphocytes, naïve and memory T lymphocytes were enriched from PBMC by negative immuno-selection. Briefly, PBMCs were incubated with one of the following antibody cocktails, containing saturating quantities of antibodies, at a final concentration of 20×10^6 cells/ml on ice for 20 minutes. To enrich for total T lymphocytes, the antibody cocktail contained anti-CD 14 (BD PharMingen), anti-CD16 (BD PharMingen), and anti-CD20 (BD PharMingen). To enrich for naïve T lymphocytes (CD45RO^−), the antibody cocktail contained anti-CD14, anti-CD16, anti-CD20, and anti-CD45RO (BD PharMingen). To enrich for memory T lymphocytes (CD45RA^−), the antibody cocktail contained, anti-CD14, anti-CD16, anti-CD20, and anti-CD45RA (BD PharMingen). […]
Activation-induced expression of CD30 on different T cell subsets was then examined. […] After 72 hours of incubation, the expression of CD30 on both CD4 and CDS cells in the different cultures was determined by flow cytometry, also as outlined in Example 6. Expression of CD30 was detected on both CD4 and CDS cells regardless of whether the starting population was total, naïve, or memory T lymphocytes (FIG. 12). […]

Jurkat T cells [6] = experiment: Growth inhibition of Jurkat T cells by ADC, 3H-TdR pulse; format: cell-based, human; conditions: 80 hours incubation + 16 hour 3H-TdR pulse
Protocol: FIG. 9. […] Cells were exposed to the ADCs continuously for a total of 96 hr. Proliferation was assessed by a pulse of H-TdR during the last 16 hours of incubation.
Five thousand Jurkat T cells in 100 μl of medium were seeded in 96-well TC plates. […] After 80 hours of incubation, cellular DNA synthesis was assessed by a 16 hour ^3H-TdR pulse.

[7] = test system: 10 CD30+ T lymphocyte clones; experiment: Summary of efficacies of cAC10 ADCs on proliferation of CD30+ T lymphocyte clones; format: cell-based, human; conditions: FIG. 23 summary
Description: The following trend was observed. […] These clones have been expanded through multiple rounds of T cell receptor and cytokine stimulation, similar to chronically stimulated effector T cells involved in inflammatory and autoimmune responses.

CD30 (human) = CD30 (human) (UniProt P28908); experiment: cell-based or functional assay
Sequence of CD30 (human) (P28908 19-595): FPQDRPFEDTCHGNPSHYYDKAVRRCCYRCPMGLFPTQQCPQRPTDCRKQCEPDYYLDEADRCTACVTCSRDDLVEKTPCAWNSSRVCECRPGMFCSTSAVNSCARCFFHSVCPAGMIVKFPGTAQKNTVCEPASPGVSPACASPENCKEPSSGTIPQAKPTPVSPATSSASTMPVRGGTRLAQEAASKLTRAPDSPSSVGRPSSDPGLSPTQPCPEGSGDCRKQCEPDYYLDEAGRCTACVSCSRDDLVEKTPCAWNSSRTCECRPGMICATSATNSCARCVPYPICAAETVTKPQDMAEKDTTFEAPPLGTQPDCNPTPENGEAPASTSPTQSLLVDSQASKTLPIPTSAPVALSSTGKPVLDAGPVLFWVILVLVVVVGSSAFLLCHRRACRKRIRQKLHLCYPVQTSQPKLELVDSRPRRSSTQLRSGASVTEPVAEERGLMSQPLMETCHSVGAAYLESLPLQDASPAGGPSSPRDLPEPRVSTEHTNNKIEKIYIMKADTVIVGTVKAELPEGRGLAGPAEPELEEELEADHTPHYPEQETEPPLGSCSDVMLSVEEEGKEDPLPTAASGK

Molecule: AC10: murine anti-CD30 mAb; variable regions SEQ ID NO:2 and 10
- DNA fragmentation in Jurkat cells (Jurkat T cells [1]): detectable
- apoptosis induction in Jurkat T cells (BrdU and PI staining) (Jurkat T cells [1]; single mAb cross-linked by goat anti-mouse IgG Fc, compared to medium control): induced apoptosis
- inhibition of Jurkat T cell proliferation by immobilized mAb (Jurkat T cells [2]): active in inhibiting Jurkat T cell proliferation
- inhibition of thymidine incorporation in Jurkat cells (Jurkat T cells [2]): inhibited thymidine incorporation in Jurkat cell dose-dependently
- earliest time of detectable apoptosis after incubation (Jurkat T cells [3]): 4 h

Molecule: anti-CD3 mAb OKT3 (antibody)
- concentration giving the best synergy with AC10 for apoptosis in Jurkat T cells (CD3 (human)): 0.2 µg/mL

Molecule: cAC10-fkMMAE: chimeric AC10 anti-CD30 antibody conjugated to MMAE via phenylalanine-lysine linker
- cells either apoptotic or dead [4]: 44-48%

Molecule: cAC10-vcAEFP: chimeric AC10 anti-CD30 antibody conjugated to AEFP via valine-citrulline linker
- sensitivity of naïve T lymphocytes to the ADC [5]: less sensitive; also recorded: most refractory

Molecule: cAC10-vcMMAE: chimeric AC10 anti-CD30 antibody conjugated to MMAE via valine-citrulline linker
- sensitivity of naïve T lymphocytes to the ADC [5]: relatively refractory; also recorded: most refractory
- IC50 (Jurkat T cells [6]): approximately 0.1 μg/ml
- concentrations that significantly inhibited DNA synthesis (Jurkat T cells [6]): higher than 0.001 μg/ml
- sensitivity of T lymphocyte clones compared to memory T lymphocytes [7]: eight of the 10 T lymphocyte clones were found to be more sensitive

Molecule: cAC10: chimeric AC10 (cAC10) anti-CD30 mAb
- concentration with growth inhibitory effect on Jurkat cells (Jurkat T cells [2]; soluble, unconjugated (FIG. 2)): higher than 1 μg/ml
- concentrations at which Jurkat cell proliferation was not inhibited (Jurkat T cells [2]; without secondary cross-linking): below 1 μg/ml

Molecule: cIgG-fkMMAE (antibody)
- percent of cells apoptotic or dead (Annexin V / PI), clones 40E10 and 40H7, 48 h with 1 µg/ml ADC (control for cAC10-fkMMAE) (CD30 (human)): 13% and 31%
- proliferation of activated Th2 clones 40E10 and 40H7 (3H-TdR); concentration needed for inhibition (control ADC) (CD30 (human)): > 0.1 µg/mL

Molecule: non-binding control IgG (cIgG)-vcMMAE (antibody)
- Jurkat T cell DNA synthesis (3H-TdR), 96 h exposure; concentration needed for growth inhibition (control ADC) (CD30 (human)): > 0.1 µg/mL
- proliferation of activated Th2 clones 40E10 and 40H7 (3H-TdR); concentration needed for inhibition (control ADC) (CD30 (human)): > 2 µg/mL

B1: HeFi-1: murine anti-CD30 mAb; variable regions SEQ ID NO:18 and 26 (antibody, listed as Mus musculus, V domains shown)
VH: EVKLVESGGGLVQPGGSLRLSCATSGFTFSDYYMNWVRQPPGKALEWLGFIRNKANGYTTEFSASVMGRFTISRDDSQSILYLQMNTLRAEDSATYYCARDPPYGNPHYYAMDYWGQGTSVTVSS
VL: DIVLTQSPASLAVSLGQRATISCRASKSVSASGYNYMHWYQQKAGQPPKLLIHLASNLESGVPARFSGSGSGTDFTLNIHPVEEEDASTYYCQHSGELPFTFGSGTKLEIK
- DNA fragmentation in Jurkat cells (Jurkat T cells [1]): detectable
- inhibition of Jurkat T cell proliferation by immobilized mAb (Jurkat T cells [2]): active in inhibiting Jurkat T cell proliferation
- inhibition of thymidine incorporation in Jurkat cells (Jurkat T cells [2]): inhibited thymidine incorporation in Jurkat cell dose-dependently
- earliest time of detectable apoptosis after incubation (Jurkat T cells [3]): 4 h
